Ke and Ki data for eight compounds are collected here from ChEMBL document CHEMBL1806350, “Probes for narcotic receptor mediated phenomena. 43. Synthesis of the ortho-a and para-a, and improved synthesis and optical resolution of the ortho-b and para-b oxide-bridged phenylmorphans: compounds with moderate to low opioid-receptor affinity” (Bioorg Med Chem, 2011).

pKi: −log10 of the molar value.

Sequence of Delta-type opioid receptor (P41143 whole entry): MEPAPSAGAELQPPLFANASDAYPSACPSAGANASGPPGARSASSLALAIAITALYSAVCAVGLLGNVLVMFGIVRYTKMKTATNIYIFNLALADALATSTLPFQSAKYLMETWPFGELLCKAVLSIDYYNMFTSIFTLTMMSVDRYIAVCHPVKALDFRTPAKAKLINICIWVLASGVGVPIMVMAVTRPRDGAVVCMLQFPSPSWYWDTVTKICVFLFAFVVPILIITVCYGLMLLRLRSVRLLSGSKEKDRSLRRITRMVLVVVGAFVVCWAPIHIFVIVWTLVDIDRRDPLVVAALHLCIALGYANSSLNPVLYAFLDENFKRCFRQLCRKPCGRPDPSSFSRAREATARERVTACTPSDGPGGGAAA

The target in the first assay is T1, Mu-type opioid receptor (Homo sapiens, UniProt P35372).
T1 sequence (P35372 whole entry): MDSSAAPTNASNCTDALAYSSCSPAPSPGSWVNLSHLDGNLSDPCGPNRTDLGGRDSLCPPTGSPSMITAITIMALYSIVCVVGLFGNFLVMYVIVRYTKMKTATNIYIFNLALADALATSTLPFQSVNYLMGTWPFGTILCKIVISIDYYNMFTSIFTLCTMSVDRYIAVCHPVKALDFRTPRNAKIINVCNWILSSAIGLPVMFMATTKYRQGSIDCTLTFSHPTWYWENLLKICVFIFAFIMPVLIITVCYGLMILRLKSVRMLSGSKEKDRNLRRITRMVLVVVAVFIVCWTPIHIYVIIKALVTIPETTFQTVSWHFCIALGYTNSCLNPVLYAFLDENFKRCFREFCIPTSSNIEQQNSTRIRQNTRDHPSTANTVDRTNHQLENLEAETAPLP
Assay: not given
Conditions: CHO.
As to `Oc1ccc2c(c1)[C@]13CCN(CCc4ccccc4)[C@H](CC[C@@H]1O2)C3`, the Ke was 47 nM.
The same measure, in the same setting: next, `Oc1ccc2c(c1)[C@@]13CCN(CCc4ccccc4)[C@@H](CC[C@H]1O2)C3`: 227 nM; `Oc1ccc2c(c1)[C@]13CCN(CCc4ccccc4)[C@H](CC[C@H]1O2)C3` (racemic): 23 nM; `Oc1cccc2c1O[C@H]1CC[C@@H]3C[C@]21CCN3CCc1ccccc1`: 328 nM.
Same read-out and setting: then `Oc1cccc2c1O[C@@H]1CC[C@@H]3C[C@]21CCN3CCc1ccccc1` (racemic), with 274 nM.
On the same count and under the same terms, next, `Oc1cccc2c1O[C@@H]1CC[C@H]3C[C@@]21CCN3CCc1ccccc1`: 31 nM.

For the next assay, the target named is T2, Kappa-type opioid receptor (Homo sapiens, UniProt P41145).
T2 sequence (P41145 whole entry): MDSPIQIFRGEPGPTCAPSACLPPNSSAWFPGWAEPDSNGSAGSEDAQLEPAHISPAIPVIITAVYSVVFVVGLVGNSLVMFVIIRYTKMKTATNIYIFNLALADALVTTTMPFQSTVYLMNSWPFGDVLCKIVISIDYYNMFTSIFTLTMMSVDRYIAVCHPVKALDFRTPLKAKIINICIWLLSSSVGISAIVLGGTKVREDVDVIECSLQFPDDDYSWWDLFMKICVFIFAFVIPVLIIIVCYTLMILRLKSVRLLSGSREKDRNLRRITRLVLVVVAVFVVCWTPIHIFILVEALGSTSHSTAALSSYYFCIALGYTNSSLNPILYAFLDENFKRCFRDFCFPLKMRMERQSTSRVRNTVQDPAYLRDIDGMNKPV
Assay: not given
The settings on record: CHO.
`Oc1ccc2c(c1)[C@]13CCN(CCc4ccccc4)[C@H](CC[C@@H]1O2)C3`: the Ke came to 100 nM.
Same read-out and setting: next, `Oc1ccc2c(c1)[C@@]13CCN(CCc4ccccc4)[C@@H](CC[C@H]1O2)C3`: 103 nM; `Oc1ccc2c(c1)[C@]13CCN(CCc4ccccc4)[C@H](CC[C@H]1O2)C3` (racemic): 46 nM; `Oc1cccc2c1O[C@H]1CC[C@@H]3C[C@]21CCN3CCc1ccccc1`: 761 nM.
With `Oc1cccc2c1O[C@@H]1CC[C@@H]3C[C@]21CCN3CCc1ccccc1` (racemic), the Ke came to 163 nM.
On the same count and under the same terms, then `Oc1cccc2c1O[C@@H]1CC[C@H]3C[C@@]21CCN3CCc1ccccc1`, with 22 nM.

For a further assay, the target named is T1, Mu-type opioid receptor. Put plainly: biochemical. Type of assay: cell-based, CHO.
Conditions: not given
Take `Oc1ccc2c(c1)[C@]13CCN(CCc4ccccc4)[C@H](CC[C@@H]1O2)C3`: the negative logarithm of the Ki (pKi) (as a rule, the Ki on a negative log10 scale, so that one unit is a factor of ten) is 6.60.
`Oc1ccc2c(c1)[C@@]13CCN(CCc4ccccc4)[C@@H](CC[C@H]1O2)C3`: the pKi was 6.45.
The same measure, in the same setting: then `Oc1ccc2c(c1)[C@]13CCN(CCc4ccccc4)[C@H](CC[C@H]1O2)C3` (racemic), with 6.31; and `CN1CC[C@]23C[C@H]1CC[C@H]2Oc1c(O)cccc13` (racemic), with below 5.55; and `CN1CC[C@]23C[C@H]1CC[C@H]2Oc1ccc(O)cc13` (racemic), with below 5.55.
On the same count and under the same terms, next, `Oc1cccc2c1O[C@@H]1CC[C@@H]3C[C@]21CCN3CCc1ccccc1` (racemic): 6.78; `Oc1cccc2c1O[C@@H]1CC[C@H]3C[C@@]21CCN3CCc1ccccc1`: 7.31.

Still in this assay, the particulars now being: cho.
Turning to `Oc1cccc2c1O[C@H]1CC[C@@H]3C[C@]21CCN3CCc1ccccc1`, the pKi is 6.42.

The next assay concerns the target Delta-type opioid receptor (Homo sapiens, UniProt P41143). Put plainly: Displacement of [125I]IOXY from human delta opioid receptor expressed in CHO cells coexpressing human recombinant DOR after 2 hrs by liquid scintillation counting.
Conditions: not given
The assay is classed as cell-based. A general note: Displacement assays read how much labelled ligand stays bound in the presence of the test substance.
Regarding `Oc1ccc2c(c1)[C@]13CCN(CCc4ccccc4)[C@H](CC[C@@H]1O2)C3`, the pKi was below 5.30.
The same measure, in the same setting: then `Oc1ccc2c(c1)[C@@]13CCN(CCc4ccccc4)[C@@H](CC[C@H]1O2)C3`, with below 5.30.
Same read-out and setting: next, `Oc1ccc2c(c1)[C@]13CCN(CCc4ccccc4)[C@H](CC[C@H]1O2)C3` (racemic): below 5.31; `CN1CC[C@]23C[C@H]1CC[C@H]2Oc1c(O)cccc13` (racemic): below 5.31; `CN1CC[C@]23C[C@H]1CC[C@H]2Oc1ccc(O)cc13` (racemic): below 5.31.
Same read-out and setting: then `Oc1cccc2c1O[C@@H]1CC[C@@H]3C[C@]21CCN3CCc1ccccc1` (racemic), with below 5.31.
`Oc1cccc2c1O[C@@H]1CC[C@H]3C[C@@]21CCN3CCc1ccccc1`: the pKi was below 5.30.

Still in this assay, the particulars now being: cho.
As to `Oc1cccc2c1O[C@H]1CC[C@@H]3C[C@]21CCN3CCc1ccccc1`, the pKi is below 5.30.

The next assay concerns the target T2, Kappa-type opioid receptor. Put plainly: Displacement of [125I]IOXY from human kappa opioid receptor expressed in CHO cells coexpressing human recombinant KOP after 2 hrs by liquid scintillation counting. The assay is classed as cell-based.
Conditions: not given
Consider `Oc1ccc2c(c1)[C@]13CCN(CCc4ccccc4)[C@H](CC[C@@H]1O2)C3`, for which the pKi was 6.70.
The same measure, in the same setting: next, `Oc1ccc2c(c1)[C@@]13CCN(CCc4ccccc4)[C@@H](CC[C@H]1O2)C3`: 6.99; `Oc1ccc2c(c1)[C@]13CCN(CCc4ccccc4)[C@H](CC[C@H]1O2)C3` (racemic): 7.01.
On the same count and under the same terms, then `CN1CC[C@]23C[C@H]1CC[C@H]2Oc1c(O)cccc13` (racemic), with 5.12; and `CN1CC[C@]23C[C@H]1CC[C@H]2Oc1ccc(O)cc13` (racemic), with below 5.07.
On the same count and under the same terms, next, `Oc1cccc2c1O[C@@H]1CC[C@@H]3C[C@]21CCN3CCc1ccccc1` (racemic): 6.77; `Oc1cccc2c1O[C@@H]1CC[C@H]3C[C@@]21CCN3CCc1ccccc1`: 7.38.

Staying with this assay, now noted: cho.
As to `Oc1cccc2c1O[C@H]1CC[C@@H]3C[C@]21CCN3CCc1ccccc1`, the pKi was 6.44.
